US9394253B2, “Kinase protein binding inhibitors” (Roswell Park Cancer Institute, priority 2011, dated 2016)

Legend:
FAK FAT domain = biological target: T1, FAK FAT domain (Homo sapiens, UniProt Q05397); test: Label-free OctetRED binding assay
T1 sequence (Q05397 914-1045 limits assumed): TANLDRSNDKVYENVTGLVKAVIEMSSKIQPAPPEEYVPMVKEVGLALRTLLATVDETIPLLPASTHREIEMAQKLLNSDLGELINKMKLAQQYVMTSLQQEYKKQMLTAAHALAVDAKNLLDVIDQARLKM
Text: We used a label-free OctetRED method for determining kinetic constants for the binding of small molecule inhibitors to the FAK FAT domain.
A label-free OctetRED method was used for determining kinetic constants for the binding of C9 or C10 to the FAK-FAT domain. Label-free analysis of the association and dissociation of a small molecule with the target protein of interest results in the determination of kinetic constants including the association rate constant (ka), dissociation rate constant (kd), and equilibrium dissociation constant (KD).

[1] = system: pancreatic cancer cell line; test: Viability of pancreatic cancer cells exposed to compounds (FIG. 3); assay type: cell-based, Human; conditions: 50 μM
Method: (§1) Equal numbers of cells were plated and allowed to attach for 24 hours. Cells were treated with the drug or control as described. Cellular viability was measured using trypan blue exclusion and cell counting with a hemacytometer. Viability was further measured with an MTS (3-(4,5-dimethylthiazol-2-yl)-5-(3-carboxymethoxyphenyl)-2-(4-sulfophenyl)-2H-tetrazolium) assay. MTS in the presence of phenazine methosulfate (PMS), produces a formazan product that has an absorbance maximum at 490-500 nm in phosphate-buffered saline. In brief, cells were plated at 5×10^3 cells per well on 96-well culture plates and allowed to attach. Following treatment with siRNA or peptides, […] was added to each well and the absorbance at 490 nm was measured using a kinetic microplate reader (Vmax, Molecular Devices, Inc., Sunnyvale, Calif.). The MTS assay was performed at 72 hours after exposure of the cells to determine the IC50 for each of the selected compounds.
FIGS. 1-3 show the results of exposure of the indicated cancer cell lines to 50 μM of the indicated compounds of the invention.

[2] = system: phosphorylated Akt and phosphorylated Erk; test: Western blot of downstream effectors of FAK (Akt, Erk); assay type: cell-based; conditions: MiaPaCa-2-luc and MCF-7-VEGFR3 cells, 1, 10 or 25 μM for 24 hours
Method: Western blots were performed essentially as previously described. See: Beierle E, Ma X, Trujillo A, Kurenova E, Cance W, Golubovskaya V: Inhibition of focal adhesion kinase and src increases detachment and apoptosis in human neuroblastoma cell lines. Mol Carcinog 2010, 49:224-234; Kurenova E, Xu L, Yang X, Baldwin A J, Craven R, Hanks S, Liu Z, Cance W: Focal adhesion kinase suppresses apoptosis by binding to the death domain of receptor-interacting protein. Mol Cell Biol 2004, 24:4361-4371. Briefly, cells were treated with the agent under study, then lysed on ice for 30 min in a buffer containing 50 mM Tris-HCL, (pH 7.5), 150 mM NaCl, 1% Triton-X, 0.5% NaDOC, 0.1% SDS, 5 mM EDTA, 50 mM NaF, 1 mM NaVO3, 10% glycerol, and protease inhibitors: 10 μg/mL leupeptin, 10 μg/mL PMSF and 1 μg/ML aprotinin. The lysates were cleared by centrifugation at 10 000 rpm for 30 min at 4° C. Protein concentrations were determined using a Bio-Rad kit (BioRad, Hercules, Calif.) and proteins were separated by electrophoresis on SDS-PAGE gels. Antibodies were used according to manufacturer's recommended conditions. Molecular weight markers were used to confirm the expected size of the target proteins. Immunoblots were developed with chemiluminescence Amersham ECL Western blotting detection reagents (GE Healthcare Biosciences). […]

[3] = biological target: T2, FAK and VEGFR3 (Flt-4) proteins (Homo sapiens, UniProt Q05397); test: Immunoprecipitation with FAK antibody after treatment of MiaPaCa-2 cells (FAK-VEGFR3 binding); assay type: cell-based; conditions: 24 h of treatment
T2 construct: Immunoprecipitation with FAK antibody after 24 h of treatment of MiaPaCa-2 cells; endogenous in cells; host or cells: MiaPaCa-2
Method: For immunoprecipitation, cells are lysed with NP40 lysis buffer, and 1000 μg of total protein is precleared with protein A/G-agarose beads (CalBiochem) at 4° C. for 1 hour and then incubated with 5 μg of antibody overnight followed by a 2 hour incubation with protein A/G-agarose beads at 4° C. Precipitates are washed thrice with cold PBS and the beads are resuspended in SDS-PAGE sample loading buffer, boiled for 5 minutes, and resolved by SDS-PAGE. Proteins are transferred to polyvinylidene difluoride membrane, probed with the appropriate antibody, and detected with chemiluminescence using Amersham ECL Western blotting detection reagents (GE Healthcare Life Sciences, Piscataway, N.J.).
The study utilized the “Octet Red” technology (ForteBio, Menlo Park, Calif.), which provides real-time monitoring for protein-small molecule interactions and binding events using BioLayer Interferometry (BLI) technology. Any change in the number of molecules bound to the biosensor tip changes the optical layer thickness. […] Since C1 is not active against this pancreatic cancer cell line, it was included as a negative control, and chloropyramine (“C4”), which has been shown previously to be active against this cell line, was used as a positive control.

[4] = system: pancreatic cancer cell line; test: Clonogenicity (colony formation); assay type: cell-based, Human; conditions: compared with chloropyramine (C4)
Method: The 500-1000 cells were plated on 6 well plates and incubated at 37° C. for 1-2 weeks. Then cells were fixed in 25% methanol and stained with Crystal Violet and colonies were visualized and counted in two independent experiments.
In FIG. 11, results of such a clonogenicity study are shown for compounds C9 and C10 using a pancreatic cancer cell line. In this particular study, since compound C1 is not active against this particular cancer cell line (see FIG. 3), it was used as a negative control. Chloropyramine (“C4”), which has been previously shown to have some activity against this cancer cell line, was used as a positive control.

MiaPaCa-2-luc cells [5] = test: MTS cell viability assay, MiaPaCa-2-luc cells; assay type: cell-based; conditions: Homo sapiens, MTS assay at 72 hours
Method: as §1
(§2) In FIGS. 15 and 16, MiaPaCa-2-luc cells (with an IC50 for C9 of 8 μM and for C10 of 20 μM) and MCF-7-VEGFR3 cells (with an IC50 for C9 of 4 μM and for C10 of 8 μM) were treated with 1, 10 or 25 μM C9 or C10 for 24 hours (the MCF-7-VEGFR3 cells serving as a positive control in this study). Western blots were performed as described above to determine the levels of total Akt, phosphorylated Akt (pAkt), total Erk, and phosphorylated Erk (pErk). […]

MiaPaCa-2-luc cells [6] = test: Tumor growth in xenograft nude mice; assay type: in vivo
Method: Female nude or SCID mice were purchased six weeks old and were maintained in the animal facility, and all experiments were performed in compliance with NIH animal use guidelines using IACUC protocol approved by the Roswell Park Animal Care Committee. The 1×10^6 MiaPaCa2 cells were injected into mice subcutaneously. Next day after cell injection or week later, when tumor size reached 100 mm^3, drug was introduced by IP or gavage orally daily, 5 days per week for several weeks. Tumor diameters were measured with calipers and tumor volume in mm^3 was calculated using this formula: tumor volume=(width)^2×Length/2. At the end of the experiment, tumor weight and volume were determined. Tumor samples were collected for Western blotting and for immunohistochemical analysis.
Mice received a daily dose of the indicated amount of compounds 9A, 9B or C10 either by intraperitoneal injection (IP) or by oral gavage (PO). Treatment was initiated after tumors reached a volume of approximately 100 mm^3. […] The percent reduction in tumor volume compared to the control group (“PBS-IP”) is indicated in FIG. 6B for each treatment group.

MCF-7-VEGFR3 cells = test: MTS cell viability assay, MCF-7-VEGFR3 cells; assay type: cell-based; conditions: MTS assay at 72 hours
Method: as §1, §2

T2 sequence (Q05397 2-1052 limits assumed): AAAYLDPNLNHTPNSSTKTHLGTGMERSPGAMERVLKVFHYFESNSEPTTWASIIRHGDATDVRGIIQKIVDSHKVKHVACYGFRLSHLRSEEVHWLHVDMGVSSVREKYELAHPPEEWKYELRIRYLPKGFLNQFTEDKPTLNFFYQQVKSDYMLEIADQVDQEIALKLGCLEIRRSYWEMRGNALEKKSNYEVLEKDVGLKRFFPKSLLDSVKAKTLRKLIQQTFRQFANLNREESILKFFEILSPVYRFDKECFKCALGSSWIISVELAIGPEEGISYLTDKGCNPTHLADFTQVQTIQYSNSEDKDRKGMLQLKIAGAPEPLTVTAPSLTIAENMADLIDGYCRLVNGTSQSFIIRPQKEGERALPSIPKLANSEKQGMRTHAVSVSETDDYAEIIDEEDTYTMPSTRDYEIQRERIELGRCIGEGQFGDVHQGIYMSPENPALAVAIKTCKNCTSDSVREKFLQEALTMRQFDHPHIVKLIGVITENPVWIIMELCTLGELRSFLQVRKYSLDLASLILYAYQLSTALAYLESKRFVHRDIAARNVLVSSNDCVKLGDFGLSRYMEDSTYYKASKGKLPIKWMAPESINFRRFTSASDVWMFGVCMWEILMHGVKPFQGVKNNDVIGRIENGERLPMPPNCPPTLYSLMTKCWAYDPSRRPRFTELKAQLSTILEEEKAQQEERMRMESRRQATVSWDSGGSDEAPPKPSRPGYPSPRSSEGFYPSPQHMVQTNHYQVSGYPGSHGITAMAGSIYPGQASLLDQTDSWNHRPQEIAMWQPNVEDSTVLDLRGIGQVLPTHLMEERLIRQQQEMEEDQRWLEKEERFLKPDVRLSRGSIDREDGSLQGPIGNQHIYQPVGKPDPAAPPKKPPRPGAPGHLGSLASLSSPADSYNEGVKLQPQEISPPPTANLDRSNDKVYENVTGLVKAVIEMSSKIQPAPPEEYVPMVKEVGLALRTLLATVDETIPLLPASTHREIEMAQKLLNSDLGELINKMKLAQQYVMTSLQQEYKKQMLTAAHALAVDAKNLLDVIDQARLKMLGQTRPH

| SMILES | binding to the FAT domain of FAK (FAK FAT domain) | activity against pancreatic cancer cell line [1] | phosphorylated Akt level [2] | phosphorylated Erk level [2] | concentration at which binding of FAK and VEGFR3 (Flt-4) proteins was disrupted [3] | inhibition of colony formation [4] | IC50 (MiaPaCa-2-luc cells [5]) | tumor volume compared to vehicle (PBS)-treated tumors (MiaPaCa-2-luc cells [6]; IP 20 mg/kg daily, P<0.05) | effectiveness by route of administration (MiaPaCa-2-luc cells [6]; oral vs intraperitoneal) | IC50 (MCF-7-VEGFR3 cells) |
| --- | --- | --- | --- | --- | --- | --- | --- | --- | --- | --- |
| CN(C)CCNc1ccccn1 [Compound C1] | does not appear to bind | not active |  |  |  |  |  |  |  |  |
| CN(C)CCN(Cc1ccc(Cl)cc1)c1ccc2ccccc2n1 [Compound C10] |  |  | strong down-regulation | strong down-regulation | 10 µM | active at much lower doses than C4 | 20 µM | Statistically significant differences | very effective when administered orally | 8 µM |
